Data set [1] is described as follows: Rabbit aerosol inhalation model, serum sCT concentration after intratracheal aerosol administration. Type of data set: in vivo. The following applies: single intratracheal aerosol administration. The protocol:
The in vivo dissolution properties of the composition were determined in a rabbit aerosol inhalation model. In this test, the serum sCT concentration was measured for increasing time following intratracheal aerosol administration for sustained release microparticles comprising 20% w/w encapsulated sCT and compared to the concentration of a control sample comprising neat 20% w/w sCT powder. […] In contrast, the absorption of the encapsulated sCT of the microparticles reaches its maximum blood levels at 4 hours post administration and are sustained to at least 24 hours. […] Accordingly, the encapsulated sCT microparticles prepared according to the above method provide improved sustain release results over the unencapsulated sCT, by increasing the duration over which the drug is released to provide a more controlled dose of the sCT drug.

The conditions of data set [2]: cited from earlier work.

Read-outs that look alike come from different tables or passages of the source.

As to `CC(C)C[C@H](NC(=O)[C@H](CCCCN)NC(=O)CNC(=O)[C@H](CC(C)C)NC(=O)[C@@H](NC(=O)[C@@H]1CSSC[C@H](N)C(=O)N[C@@H](CO)C(=O)N[C@@H](CC(N)=O)C(=O)N[C@@H](CC(C)C)C(=O)N[C@@H](CO)C(=O)N[C@@H]([C@@H](C)O)C(=O)N1)C(C)C)C(=O)N[C@@H](CO)C(=O)N[C@@H](CCC(N)=O)C(=O)N[C@@H](CCC(=O)O)C(=O)N[C@@H](CC(C)C)C(=O)N[C@@H](Cc1c[nH]cn1)C(=O)N[C@@H](CCCCN)C(=O)N[C@@H](CC(C)C)C(=O)N[C@@H](CCC(N)=O)C(=O)N[C@H](C(=O)N[C@@H](Cc1ccc(O)cc1)C(=O)N1CCC[C@H]1C(=O)N[C@@H](CCCNC(=N)N)C(=O)N[C@H](C(=O)N[C@@H](CC(N)=O)C(=O)N[C@H](C(=O)NCC(=O)N[C@@H](CO)C(=O)NCC(=O)N[C@H](C(=O)N1CCC[C@H]1C(N)=O)[C@@H](C)O)[C@@H](C)O)[C@@H](C)O)[C@@H](C)O` [neat salmon calcitonin], the tmax in data set [1] (serum, inhaled or intranasal, read-out: time to maximum concentration in the blood (converted)) is 15 min. Besides, in data set [1], the “time after which blood levels return to baseline” value worked out at 3 h.

Consider `CCCC1O[C@@H]2C[C@H]3[C@@H]4CCC5=CC(=O)C=C[C@]5(C)[C@H]4[C@@H](O)C[C@]3(C)[C@]2(C(=O)CO)O1` (stereo partly drawn) [budesonide], for which, in data set [2] (following inhalation delivery, Pulmicort Turbuhaler), the tmax is roughly 30 min. Further, the absolute bioavailability in data set [2] (inhaled) is listed as 39%. For the same molecule, the bioavailability is reported as 21±6% in data set [2] (nasal) and 10.7±4.3% in data set [2] (oral).

The values above are taken from US20070031342A1, “Sustained release microparticles for pulmonary delivery” (Nektar Therapeutics, priority 2005, published 2007).
